Experiments:
Tumor necrosis factor = Tumor necrosis factor (Homo sapiens, UniProt P01375); test: Displacement of fluorescent labeled probe from human recombinant His-tagged TNFalpha (77 to 233 residues) expressed in Escherichia coli preincubated for 1 hr followed by fluorogenic probe addition and measured after 3 hrs by HTRF assay
[1] = Metabolic stability in human liver microsomes assessed as half-life; type: ADME, Microsome
[2] = Permeability of the compound across apical to basolateral side of membrane in human Caco-2 cells; type: ADME, cell-based; conditions: read-out: permeability
Cytochrome P450 2C8 = target: T1, Cytochrome P450 2C8 (Homo sapiens, UniProt P10632); test: Inhibition of recombinant CYP2C8 (unknown origin); type: ADME
T1 sequence (P10632 whole entry): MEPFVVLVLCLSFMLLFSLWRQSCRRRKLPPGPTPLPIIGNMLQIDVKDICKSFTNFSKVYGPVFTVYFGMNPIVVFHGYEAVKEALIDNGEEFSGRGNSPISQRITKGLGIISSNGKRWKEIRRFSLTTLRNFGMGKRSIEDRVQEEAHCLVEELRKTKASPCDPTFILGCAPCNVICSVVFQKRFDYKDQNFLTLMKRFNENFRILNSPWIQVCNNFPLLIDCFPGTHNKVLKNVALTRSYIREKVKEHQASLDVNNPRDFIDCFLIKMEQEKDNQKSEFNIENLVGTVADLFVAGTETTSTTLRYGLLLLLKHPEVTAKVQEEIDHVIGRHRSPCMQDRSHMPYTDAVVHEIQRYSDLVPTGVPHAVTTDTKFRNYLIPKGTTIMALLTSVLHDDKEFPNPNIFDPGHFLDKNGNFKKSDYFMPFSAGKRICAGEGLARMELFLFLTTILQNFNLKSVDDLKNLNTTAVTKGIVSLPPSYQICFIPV

[3] = Total AUC in mouse at 2 mg/kg, po; type: ADME, organism-based; set-up: time AUCmax, route oral, dose 2 mg/kg; conditions: in vivo
[4] = Cmax in mouse at 2 mg/kg, po; type: ADME, organism-based; set-up: route oral, dose 2 mg/kg; conditions: in vivo
[5] = Volume of distribution at steady state in mouse at 0.5 mg/kg, iv; type: ADME, organism-based; conditions: in vivo, read-out: Vdss
[6] = Half-life in mouse at 0.5 mg/kg, iv; type: ADME, organism-based; conditions: in vivo
[7] = Oral bioavailability in mouse at 2 mg/kg; type: ADME, organism-based; conditions: in vivo
Mus musculus [8] = test: Antiarthritic activity against anticollagen antibody-induced arthritis BALB/c mouse model assessed as reduction in swelling of digits administered orally twice a day followed by LPS stimulation after 6 hrs measured until day 12; type: functional, organism-based; conditions: dose 2-10 mg/kg, time 12.0 day
Mus musculus [9] = test: Antiarthritic activity against anticollagen antibody-induced arthritis BALB/c mouse model assessed as reduction in LPS-induced MCP-1 levels administered orally twice daily followed by LPS stimulation after 6 hrs measured on day 12 by RT-PCR analysis; type: functional, organism-based; conditions: dose 2-10 mg/kg, time 12.0 day
Mus musculus [10] = test: Antiarthritic activity against anticollagen antibody-induced arthritis BALB/c mouse model assessed as reduction in LPS-induced CXCL12 levels administered orally twice daily followed by LPS stimulation after 6 hrs measured on day 12 by RT-PCR analysis; type: functional, organism-based; conditions: dose 2-10 mg/kg, time 12.0 day
Mus musculus [11] = test: Antiarthritic activity against anticollagen antibody-induced arthritis BALB/c mouse model assessed as reduction in LPS-induced IL-17a production administered orally twice daily followed by LPS stimulation after 6 hrs measured on day 12 by RT-PCR analysis; type: functional, organism-based; conditions: dose 2-10 mg/kg, time 12.0 day
Mus musculus [12] = test: Antiarthritic activity against anticollagen antibody-induced arthritis BALB/c mouse model assessed as reduction in LPS-induced cells expressing B220 receptor administered orally twice daily followed by LPS stimulation after 6 hrs measured on day 12 by RT-PCR analysis; type: functional, organism-based; conditions: dose 2-10 mg/kg, time 12.0 day
[13] = Terminal drug exposure in anticollagen antibody-induced arthritis BALB/c mouse model at 10 mg/kg, po BID followed by LPS stimulation after 6 hrs measured on day 12; type: ADME, organism-based; conditions: in vivo, time 12 day, read-out: Drug uptake
[14] = Selectivity ratio of drug exposure in anticollagen antibody-induced arthritis BALB/c mouse model at 10 mg/kg, po BID for 12 days to IC50 for inhibition of human TNFalpha expressed in HEK-Blue-CD40L cells assessed as inhibition of NFkappaB activation by quanti-blue based SEAP assay
[15] = target: Voltage-gated inwardly rectifying potassium channel KCNH2 (Homo sapiens, UniProt Q12809); test: Inhibition of human ERG by patch clamp assay
Sequence of Voltage-gated inwardly rectifying potassium channel KCNH2 (Q12809 whole entry): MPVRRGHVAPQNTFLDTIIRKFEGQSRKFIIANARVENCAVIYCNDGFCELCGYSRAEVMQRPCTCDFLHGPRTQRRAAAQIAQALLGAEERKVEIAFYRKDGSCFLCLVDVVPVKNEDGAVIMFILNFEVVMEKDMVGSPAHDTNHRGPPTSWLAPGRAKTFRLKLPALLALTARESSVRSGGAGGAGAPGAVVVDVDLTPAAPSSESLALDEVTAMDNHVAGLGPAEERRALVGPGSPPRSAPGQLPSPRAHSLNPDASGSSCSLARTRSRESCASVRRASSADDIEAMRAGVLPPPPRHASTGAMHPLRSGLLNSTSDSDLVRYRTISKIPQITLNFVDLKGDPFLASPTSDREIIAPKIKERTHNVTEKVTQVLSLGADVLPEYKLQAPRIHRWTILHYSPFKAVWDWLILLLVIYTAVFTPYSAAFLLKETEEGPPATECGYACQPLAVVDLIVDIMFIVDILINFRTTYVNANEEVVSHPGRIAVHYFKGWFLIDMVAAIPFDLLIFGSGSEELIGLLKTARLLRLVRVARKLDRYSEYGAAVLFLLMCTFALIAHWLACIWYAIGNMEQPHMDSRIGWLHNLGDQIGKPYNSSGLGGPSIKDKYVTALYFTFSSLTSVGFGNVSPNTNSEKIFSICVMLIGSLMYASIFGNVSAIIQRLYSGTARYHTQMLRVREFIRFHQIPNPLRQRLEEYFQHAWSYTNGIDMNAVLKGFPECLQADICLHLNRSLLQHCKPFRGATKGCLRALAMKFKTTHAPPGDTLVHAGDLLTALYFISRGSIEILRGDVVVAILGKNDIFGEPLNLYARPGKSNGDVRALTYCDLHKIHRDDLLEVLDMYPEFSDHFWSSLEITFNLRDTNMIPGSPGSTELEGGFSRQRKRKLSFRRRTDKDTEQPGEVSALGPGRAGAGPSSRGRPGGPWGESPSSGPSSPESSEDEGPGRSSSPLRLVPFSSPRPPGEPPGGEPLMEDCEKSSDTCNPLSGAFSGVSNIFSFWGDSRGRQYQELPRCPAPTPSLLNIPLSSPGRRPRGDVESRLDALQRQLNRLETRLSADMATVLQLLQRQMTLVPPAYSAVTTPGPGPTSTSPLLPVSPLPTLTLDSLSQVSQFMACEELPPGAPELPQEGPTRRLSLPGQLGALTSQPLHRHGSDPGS

[16] = target: T2, Tumor necrosis factor ligand superfamily member 6 (Homo sapiens, UniProt P48023); test: Inhibition of FasL (unknown origin)
T2 sequence (P48023 whole entry): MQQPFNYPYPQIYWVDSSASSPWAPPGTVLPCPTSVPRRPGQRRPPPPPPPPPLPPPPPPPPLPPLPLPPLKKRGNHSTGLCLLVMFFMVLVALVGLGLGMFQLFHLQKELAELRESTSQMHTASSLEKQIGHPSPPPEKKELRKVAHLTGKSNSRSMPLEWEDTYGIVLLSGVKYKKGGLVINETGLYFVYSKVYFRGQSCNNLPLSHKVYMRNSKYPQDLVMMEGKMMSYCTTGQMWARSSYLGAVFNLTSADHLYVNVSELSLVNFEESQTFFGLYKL

Lymphotoxin-beta = target: T3, Lymphotoxin-beta (Homo sapiens, UniProt Q06643); test: Inhibition of LTbeta (unknown origin)
T3 sequence (Q06643 whole entry): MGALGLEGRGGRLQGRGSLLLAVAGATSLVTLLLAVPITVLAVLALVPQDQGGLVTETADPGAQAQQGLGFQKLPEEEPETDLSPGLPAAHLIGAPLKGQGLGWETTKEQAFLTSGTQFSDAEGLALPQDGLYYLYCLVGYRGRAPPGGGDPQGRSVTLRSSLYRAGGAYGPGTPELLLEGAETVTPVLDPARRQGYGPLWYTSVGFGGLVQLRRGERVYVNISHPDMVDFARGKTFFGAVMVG

[17] = target: T4, Tumor necrosis factor receptor superfamily member 1A (Homo sapiens) (UniProt P19438); test: Binding affinity to TNFR1 (unknown origin) assessed as sedimentation coefficient (S) value at 25 uM in presence of human TNFalpha by ultracentrifugation analysis (reference value: 2.2)
T4 sequence (whole entry): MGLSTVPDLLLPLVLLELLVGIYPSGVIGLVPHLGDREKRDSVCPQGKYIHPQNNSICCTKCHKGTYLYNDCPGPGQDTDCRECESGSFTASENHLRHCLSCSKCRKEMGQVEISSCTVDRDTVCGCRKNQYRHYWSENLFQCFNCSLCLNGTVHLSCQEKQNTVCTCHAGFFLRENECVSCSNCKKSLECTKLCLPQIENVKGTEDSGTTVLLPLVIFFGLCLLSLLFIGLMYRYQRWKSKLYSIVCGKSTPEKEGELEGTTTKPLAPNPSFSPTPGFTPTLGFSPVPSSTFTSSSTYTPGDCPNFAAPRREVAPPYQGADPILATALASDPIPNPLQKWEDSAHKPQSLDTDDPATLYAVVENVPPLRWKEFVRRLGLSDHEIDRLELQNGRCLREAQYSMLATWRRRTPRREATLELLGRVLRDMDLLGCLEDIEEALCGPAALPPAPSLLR

Sequence of Tumor necrosis factor (P01375 whole entry, the tested form may be a part): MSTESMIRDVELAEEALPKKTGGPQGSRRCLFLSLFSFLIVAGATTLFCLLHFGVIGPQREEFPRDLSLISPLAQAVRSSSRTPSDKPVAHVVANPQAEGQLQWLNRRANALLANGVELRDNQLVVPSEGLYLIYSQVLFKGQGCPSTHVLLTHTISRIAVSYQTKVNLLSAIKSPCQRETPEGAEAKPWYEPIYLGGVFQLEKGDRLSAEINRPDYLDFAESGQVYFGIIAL

half-life [1]: > 2 h | Papp A→B [2]: 20 ×10⁻⁶ cm/s | IC50 (Cytochrome P450 2C8): > 6.7 µM | AUC [3]: 5.9 µM·h | Cmax [4]: 470 nM | Vd [5]: 3.2 L/kg | half-life [6]: 6.2 h | bioavailability [7]: 58% | concentration at 288 h [13]: 1130 nM
Compound: Cc1nc2cc(F)c(-c3cnc(C(C)(C)O)nc3)nc2c(N[C@H](C)c2cc(C#N)ccc2F)c1Cl
IC50 (Tumor necrosis factor): 0.025 µM | Activity (Mus musculus [8]): Dose-dependent effect | Activity (Mus musculus [9]): Dose-dependent effect | Activity (Mus musculus [10]): Dose-dependent effect | Activity (Mus musculus [11]): Dose-dependent effect | Activity (Mus musculus [12]): Dose-dependent effect | Selectivity ratio [14]: 4.4 | IC50 [15]: 5.6 µM | IC50 [16]: > 10 µM | IC50 (Lymphotoxin-beta): > 10 µM | Activity index [17]: 2.2
